Measured values reported in patent US20070287726A1, “5-Substituted 1H-Pyrrolo [3,2-B] Pyridines” (Altana Pharma AG, priority 2004, published 2007).

Key:
[1] = system: pentagastrin-stimulated acid secretion of the perfused rat stomach; assay: Secretion-inhibiting action on the perfused rat stomach; format: in vivo; conditions: anesthetized CD rat
Description: In Table A which follows, the influence of the compounds of the formula 1 according to the invention on the pentagastrin-stimulated acid secretion of the perfused rat stomach after intraduodenal/intravenous administration in vivo is shown.
The abdomen of anesthetized rats (CD rat, female, 200-250 g; 1.5 g/kg i.m. urethane) was opened after tracheotomy by a median upper abdominal incision and a PVC catheter was fixed transorally in the esophagus and another via the pylorus such that the ends of the tubes just projected into the gastric lumen. The catheter leading from the pylorus led outward into the right abdominal wall through a side opening.
After thorough rinsing (about 50-100 ml), warm (37° C.) physiological NaCl solution was continuously passed through the stomach (0.5 ml/min, pH 6.8-6.9; Braun-Unita I). The pH (pH meter 632, glass electrode EA 147; φ=5 mm, Metrohm) and, by titration with a freshly prepared 0.01N NaOH solution to pH 7 (Dosimat 665 Metrohm), the secreted HCl were determined in the effluent in each case collected at an interval of 15 minutes.
The gastric secretion was stimulated by continuous infusion of 1 μg/kg (=1.65 ml/h) of i.v. pentagastrin (left femoral vein) about 30 min after the end of the operation (i.e. after determination of 2 preliminary fractions). The substances to be tested were administered intraduodenally (substance 7 intravenously) in a 2.5 ml/kg liquid volume 60 min after the start of the continuous pentagastrin infusion.
The body temperature of the animals was kept at a constant 37.8-38° C. by infrared irradiation and heat pads (automatic, stepless control by means of a rectal temperature sensor).

melting point | Compound | Inhibition of acid secretion (%) ([1]; dose 1 μmol/kg i.d.) | further results
296 °C | CCc1cccc(C)c1CNc1cc(Cl)nc2cc(C)[nH]c12 [Example 1, (5-Chloro-2-methyl-1H-pyrrolo[3,2-b]pyridin-7-yl)-(2-ethyl-6-methyl-benzyl)-amine] |  | 
274 to 275 °C | CCOC(=O)c1cc(NCc2c(C)cccc2CC)c2[nH]c(C)cc2n1 [Example 2, Ethyl[7-(2-ethyl-6-methyl-benzylamino)-2-methyl-1H-pyrrolo[3,2-b]pyridine-5-carboxylate]] |  | 
 | CCc1cccc(C)c1CNc1cc(C(=O)N(C)C)nc2c(Br)c(C)[nH]c12 [Example 5, 3-Bromo-7-(2-ethyl-6-methyl-benzylamino)-2-methyl-1H-pyrrolo[3,2-b]pyridine-5-carboxylic acid dimethylamide] | >30% | 
 | CCc1cccc(C)c1CNc1cc(C(=O)N(C)C)nc2c(CO)c(C)[nH]c12 [Example 6, 7-(2-Ethyl-6-methyl-benzylamino)-3-hydroxymethyl-2-methyl-1H-pyrrolo[3,2-b]pyridine-5-carboxylic acid dimethylamide] | >30% | 
 | CCc1cccc(C)c1CNc1cc(C(=O)N(C)C)nc2c(C)c(C)[nH]c12 [Example 7, 7-(2-Ethyl-6-methyl-benzylamino)-2,3-dimethyl-1H-pyrrolo[3,2-b]pyridine-5-carboxylic acid dimethylamide] |  | Inhibition of acid secretion (%) ([1]; dose 2 μmol/kg i.v.): >80%
254 °C | CCOC(=O)c1cc(NCc2c(C)cccc2C)c2[nH]c(C)cc2n1 [Example 9, Ethyl[7-(2,6-dimethyl-benzylamino)-2-methyl-1H-pyrrolo[3,2-b]pyridine-5-carboxylate]] |  | 
 | Cc1cccc(C)c1CNc1cc(C(=O)N(C)C)nc2c(Br)c(C)[nH]c12 [Example 12, 3-Bromo-7-(2,6-dimethyl-benzylamino)-2-methyl-1H-pyrrolo[3,2-b]pyridine-5-carboxylic acid dimethylamide] |  | Inhibition of acid secretion (%) ([1]; dose 3 μmol/kg i.d.): >60%
 | Cc1cccc(C)c1CNc1cc(C(=O)N(C)C)nc2c(C)c(C)[nH]c12 [Example 14, 7-(2,6-Dimethyl-benzylamino)-2,3-dimethyl-1H-pyrrolo[3,2-b]pyridine-5-carboxylic acid dimethylamide] | >50% | 
256 to 259 °C | CCOC(=O)c1cc(NCc2c(C)cccc2C)c2[nH]c(C)c(CO)c2n1 [Example 19, Ethyl[7-(2,6-dimethyl-benzylamino)-3-hydroxymethyl-2-methyl-1H-pyrrolo[3,2-b]pyridine-5-carboxylate]] |  | 
